The test system of assay [1] is Streptococcus pyogenes. The assay can be described thus: Antimicrobial activity against Streptococcus pyogenes ATCC 19615 assessed as growth inhibition after 24 to 48 hr by two-fold serial dilution method relative to chloramphenicol. Format: functional.
Assay [2] concerns Staphylococcus aureus. Description: Antimicrobial activity against Staphylococcus aureus ATCC 25923 assessed as diameter of growth inhibition zone at 1 mg/ml after 24 hr by agar diffusion method. To be noted: ATCC 25923, 24 h, read-out: DIZ. Format: functional.
Assay [3] has as its system Staphylococcus aureus. The assay can be described thus: Antimicrobial activity against Staphylococcus aureus ATCC 25923 assessed as growth inhibition after 24 to 48 hr by two-fold serial dilution method. Format: functional.
For assay [4], the system named is Pseudomonas savastanoi pv. phaseolicola. The assay can be described thus: Antimicrobial activity against Pseudomonas syringae pv. phaseolicola GSPB 2828 assessed as growth inhibition after 24 to 48 hr by two-fold serial dilution method. Format: functional.
Assay [5] deals with Streptococcus pyogenes. Description: Antimicrobial activity against Streptococcus pyogenes ATCC 19615 assessed as growth inhibition after 24 to 48 hr by two-fold serial dilution method. Format: functional.
For assay [6], the system named is Pseudomonas fluorescens. Description: Antimicrobial activity against Pseudomonas fluorescens S 97 assessed as growth inhibition after 24 to 48 hr by two-fold serial dilution method. Format: functional.
The subject of assay [7] is Streptococcus pyogenes. The assay can be described thus: Antimicrobial activity against Streptococcus pyogenes ATCC 19615 assessed as diameter of growth inhibition zone at 1 mg/ml after 24 hr by agar diffusion method. To be noted: ATCC 19615, 24 h, read-out: DIZ. Format: functional. In general terms: In agar diffusion tests the substance spreads into inoculated agar from a disc or well.

The test system of assay [8] is Pseudomonas savastanoi pv. phaseolicola. Description: Antimicrobial activity against Pseudomonas syringae pv. phaseolicola GSPB 2828 assessed as diameter of growth inhibition zone at 1 mg/ml after 24 hr by agar diffusion method. The following applies: GSPB 2828, 24 h, read-out: DIZ. Format: functional.
Assay [9] concerns Fusarium oxysporum. Description: Antimicrobial activity against Fusarium oxysporum assessed as diameter of growth inhibition zone at 1 mg/ml […] by agar diffusion method. Format: functional. To be noted: read-out: DIZ.
In assay [10] the test system is Aspergillus fumigatus. Description: Antimicrobial activity against Aspergillus fumigatus assessed as diameter of growth inhibition zone at 1 mg/ml by agar diffusion method. The following applies: read-out: DIZ.
Assay [11] relates to Aspergillus fumigatus. The assay can be described thus: Antimicrobial activity against Aspergillus fumigatus assessed as growth inhibition after 24 to 48 hr by two-fold serial dilution method. Format: functional.
The test system of assay [12] is Pseudomonas fluorescens. The assay can be described thus: Antimicrobial activity against Pseudomonas fluorescens S 97 assessed as diameter of growth inhibition zone at 1 mg/ml after 24 hr by agar diffusion method. The following applies: S 97, 24 h, read-out: DIZ. Format: functional.
Assay [13] relates to Fusarium oxysporum. The assay can be described thus: Antimicrobial activity against Fusarium oxysporum assessed as growth inhibition after 24 to 48 hr by two-fold serial dilution method. Format: functional.
In assay [14] the test system is Staphylococcus aureus. Description: Antimicrobial activity against Staphylococcus aureus ATCC 25923 assessed as growth inhibition after 24 to 48 hr by two-fold serial dilution method relative to chloramphenicol. Format: functional.
Assay [15] concerns Staphylococcus aureus. Description: Antimicrobial activity against Staphylococcus aureus ATCC 25923 assessed as growth inhibition after 24 to 48 hr by two-fold serial dilution method relative to cephalothin. Format: functional.

Values after ≈ are worked out from the molar mass of the structure shown. Active and inactive are the calls of the source. No cut-off for these calls is given here.

One may read the MIC as the least concentration at which growth counts as inhibited. As to `Cc1ccc(C2CC(c3ccc(-n4c(-c5ccc(OS(=O)(=O)c6ccc(C)cc6)cc5)nc5ccccc5c4=O)cc3)=NN2)cc1` (stereo not drawn), in [1], the “growth inhibition (GI)” value is listed as 50%. Moreover, the zone of inhibition at 1000 µg/mL in assay [2] came out at 43 mm; in assay [7] it was 38 mm; in assay [8] it was 19 mm; in assay [9], 14 mm; in assay [10], 31 mm. Moreover, the MIC was 3.12 µg/mL (≈ 4.99 µM) in [3], 50 µg/mL (≈ 79.8 µM) in [4], 6.25 µg/mL (≈ 9.97 µM) in assay [5] and 12.5 µg/mL (≈ 19.9 µM) in [11]. Also, the MIC result in [6] is “inactive”.

Take `CC(=O)OCC1=C(C(=O)O)N2C(=O)[C@@H](NC(=O)Cc3cccs3)[C@H]2SC1` [CEPHALOTHIN]: the zone of inhibition at 1000 µg/mL in assay [2] came to 36 mm; in assay [7], 37 mm; in assay [8] it was 38 mm; in [12], 37 mm. Also, the MIC in [3], in assay [4], in [5] and in [6] was 6.25 µg/mL (≈ 15.8 µM) throughout.

Turning to `Cc1ccc(S(=O)(=O)Oc2ccc(-c3nc4ccccc4c(=O)n3-c3ccc(N)cc3)cc2)cc1`, the zone of inhibition at 1000 µg/mL is 14 mm in assay [2]; 15 mm in assay [7]; 15 mm in [8]; 37 mm in assay [9]; 26 mm in assay [10]; 18 mm in assay [12]. The MIC in [6] amounted to 50 µg/mL (≈ 103 µM); in [11], 25 µg/mL (≈ 51.7 µM); in assay [13], 6.25 µg/mL (≈ 12.9 µM).

Take `Cc1ccc(S(=O)(=O)Oc2ccc(-c3nc4ccccc4c(=O)n3-c3nccs3)cc2)cc1`: the “growth inhibition (GI)” value in assay [1] and in assay [14] was 50% each time. The zone of inhibition at 1000 µg/mL is 38 mm in assay [2]; 38 mm in [7]; 14 mm in assay [8]; 15 mm in assay [9]; 19 mm in assay [10]; 16 mm in assay [12]. Further, the MIC in assay [3] was 6.25 µg/mL (≈ 13.1 µM); in assay [5], 6.25 µg/mL (≈ 13.1 µM); in assay [11], 50 µg/mL (≈ 105 µM).

With `Cc1ccc(S(=O)(=O)Oc2ccc(C(=O)Nc3ccccc3-c3nc4ccccc4[nH]3)cc2)cc1`, the zone of inhibition at 1000 µg/mL stood at 25 mm in assay [2]; 25 mm in assay [7]; 19 mm in [8]; 15 mm in [9]; 14 mm in [12]. In addition, the minimum inhibitory concentration (MIC) in [3] amounted to 25 µg/mL (≈ 51.7 µM); in assay [4] it was 50 µg/mL (≈ 103 µM); in assay [5], 25 µg/mL (≈ 51.7 µM). Moreover, the MIC entry in assay [11] is “inactive”.

For the compound `Cc1ccc(S(=O)(=O)Oc2ccc(-c3nc4ccccc4c4nc5ccccc5n34)cc2)cc1`, the zone of inhibition at 1000 µg/mL was 26 mm in assay [2]; 25 mm in assay [7]; 14 mm in assay [8]; 16 mm in assay [9]; 20 mm in assay [10]; 37 mm in assay [12]. In addition, the MIC in assay [3] is 25 µg/mL (≈ 53.7 µM); in assay [5] it was 25 µg/mL (≈ 53.7 µM); in assay [6], 6.25 µg/mL (≈ 13.4 µM); in [11], 50 µg/mL (≈ 107 µM).

In the case of `O=C(N[C@H](CO)[C@H](O)c1ccc([N+](=O)[O-])cc1)C(Cl)Cl` [CHLORAMPHENICOL], the zone of inhibition at 1000 µg/mL in assay [2] amounted to 42 mm; in assay [7] it was 44 mm; in [8], 37 mm; in [12] it was 38 mm. For the same compound, the MIC in [3] was found to be 3.12 µg/mL (≈ 9.67 µM); in [4], 6.25 µg/mL (≈ 19.3 µM); in [5], 3.12 µg/mL (≈ 9.67 µM); in [6] it was 6.25 µg/mL (≈ 19.3 µM).

Take `Cc1ccc(S(=O)(=O)Oc2ccc(-c3nc4ccccc4c(=O)n3-c3ccc(C4=NNC(c5ccccc5)C4)cc3)cc2)cc1` (stereo not drawn): in [1], the “growth inhibition (GI)” value is on record as 50%. Further, the zone of inhibition at 1000 µg/mL in assay [2] was 43 mm; in assay [7] it was 38 mm; in assay [8], 19 mm; in [9], 14 mm; in assay [10] it was 31 mm. Also, the MIC in [3] is 3.12 µg/mL (≈ 5.1 µM); in [4], 50 µg/mL (≈ 81.6 µM); in [5], 6.25 µg/mL (≈ 10.2 µM); in assay [11], 12.5 µg/mL (≈ 20.4 µM). Also, the MIC result in assay [6] is “inactive”.

For the compound `Cc1ccc(S(=O)(=O)Oc2ccc(C3=Nc4ccccc4C4=NCCN34)cc2)cc1`, the zone of inhibition at 1000 µg/mL worked out at 25 mm in assay [2]; 37 mm in assay [7]; 26 mm in [8]; 15 mm in assay [9]; 14 mm in [10]; 19 mm in assay [12]. In addition, the MIC in assay [3] was determined as 25 µg/mL (≈ 59.9 µM); in assay [4], 25 µg/mL (≈ 59.9 µM); in [5] it was 6.25 µg/mL (≈ 15 µM); in assay [6], 50 µg/mL (≈ 120 µM).

For `Cc1ccc(S(=O)(=O)Oc2ccc(-c3nc4ccccc4c4nc(=S)[nH]n34)cc2)cc1`, the zone of inhibition at 1000 µg/mL in assay [2] is 44 mm; in assay [7], 37 mm; in assay [8] it was 15 mm; in assay [9], 26 mm; in assay [10] it was 14 mm; in assay [12] it was 19 mm. Further, the minimal inhibitory concentration (MIC) in assay [3] came to 3.12 µg/mL (≈ 6.97 µM); in assay [5], 6.25 µg/mL (≈ 13.9 µM); in assay [6], 50 µg/mL (≈ 111 µM); in assay [13], 25 µg/mL (≈ 55.7 µM).

For the compound `COc1ccc(C2CC(c3ccc(-n4c(-c5ccc(OS(=O)(=O)c6ccc(C)cc6)cc5)nc5ccccc5c4=O)cc3)=NN2)cc1` (stereo not drawn), the “growth inhibition (GI)” value in assay [1] was 50%. Besides, the zone of inhibition at 1000 µg/mL turned out to be 43 mm in assay [2]; 38 mm in assay [7]; 19 mm in assay [8]; 14 mm in assay [9]; 31 mm in assay [10]. The MIC in assay [3] stood at 3.12 µg/mL (≈ 4.86 µM); in [4], 50 µg/mL (≈ 77.8 µM); in assay [5], 6.25 µg/mL (≈ 9.72 µM); in assay [11], 12.5 µg/mL (≈ 19.4 µM). In assay [6], the MIC entry is “inactive”.

Consider `Cc1ccc(S(=O)(=O)Oc2ccc(-c3nc4ccccc4c(=O)n3-c3nc4ccccc4s3)cc2)cc1`, for which the “growth inhibition (GI)” value in [1] and in [14] was 50% in each case. Moreover, the zone of inhibition at 1000 µg/mL in [2] was determined as 38 mm; in assay [7], 37 mm; in [8], 19 mm; in assay [9], 14 mm; in assay [12], 20 mm. In addition, the MIC stood at 6.25 µg/mL (≈ 11.9 µM) in assay [3], 50 µg/mL (≈ 95.1 µM) in [4], 6.25 µg/mL (≈ 11.9 µM) in assay [5] and 50 µg/mL (≈ 95.1 µM) in assay [6]. The MIC result in assay [11] is “inactive”.

On to `Cc1ccc(S(=O)(=O)Oc2ccc(-c3nc4ccccc4c(=O)n3-n3c(C)nc4ccccc4c3=O)cc2)cc1`, for which the zone of inhibition at 1000 µg/mL in [2] came to 19 mm; in assay [7], 15 mm; in assay [8] it was 14 mm; in assay [9], 15 mm; in [10], 38 mm; in assay [12] it was 19 mm. Besides, the MIC was determined as 50 µg/mL (≈ 90.8 µM) in assay [3], 50 µg/mL (≈ 90.8 µM) in [6] and 6.25 µg/mL (≈ 11.4 µM) in [11].

For the compound `Cc1ccc(S(=O)(=O)Oc2ccc(-c3nnnn3-c3ccccc3C(=O)O)cc2)cc1`, the “growth inhibition (GI)” value was found to be 50% in assay [15] and 25% in assay [14]. Further, the zone of inhibition at 1000 µg/mL is 32 mm in assay [2]; 38 mm in [7]; 14 mm in [8]; 19 mm in assay [9]; 20 mm in assay [12]. Besides, the MIC in assay [3] is 12.5 µg/mL (≈ 28.6 µM); in assay [5] it was 6.25 µg/mL (≈ 14.3 µM); in assay [6], 50 µg/mL (≈ 115 µM); in [13] it was 50 µg/mL (≈ 115 µM). Besides, the MIC result in assay [11] was “inactive”.

On to `C[C@@H]1C[C@@H]([C@H](O)CC2CC(=O)NC(=O)C2)C(=O)[C@@H](C)C1` [CYCLOHEXIMIDE], for which the values for the zone of inhibition at 1000 µg/mL in [9] and in [10] were 43 mm and 42 mm, respectively. In addition, the MIC in assay [11] and in [13] was 3.12 µg/mL (≈ 11.1 µM) in each case.

With `Cc1ccc(S(=O)(=O)Oc2ccc(-c3nc4ccccc4c4nc(=O)[nH]n34)cc2)cc1`, the zone of inhibition at 1000 µg/mL stood at 15 mm in [2]; 15 mm in [7]; 38 mm in assay [8]; 19 mm in [9]; 15 mm in assay [10]; 15 mm in assay [12]. Besides, the values for the MIC in assay [4] and in [13] were 6.25 µg/mL (≈ 14.5 µM) and 50 µg/mL (≈ 116 µM), respectively.

The record behind these values is ChEMBL document CHEMBL3045082, “Novel quinazolinone derivatives: synthesis and antimicrobial activity” (2013).
